# Assay results published in paper PMC10791743, “Selective CK1α degraders exert antiproliferative activity against a broad range of human cancer cell lines” (Nature Communications, 2024).
# What was measured:
# [1] = Metabolic stability in cryopreserved hepatocytes, human; type: in vitro ADME; settings: human, cryopreserved hepatocytes; read-out: Hepatocyte stability t1/2
# Protocol: page 34: UHPLC-MS/MS System: Chromatographic separation was performed on an Acquity UPLC BEH […] with 6500+ Qtrap system. […] software suite. The UPLC column was maintained at 55 °C. Mobile phase A was 0.1% formic acid in MilliQ H2O and Mobile phase B was 0.1% formic acid in acetonitrile. The flow rate was 0.9 […] The mass spectrometer was operated in positive-ion mode with electrospray ionization. MRM transition m/z […] plasma stability and plasma protein binding. The following MS parameters were employed for analyte measurements: ion spray voltage 5 kV, temperature 550 °C, gas 1 and gas 2 were 60, entrance potential (EP): 10 V, declustering potential (DP): 50 V, collision energy (CE): 27 V, and collision cell exit potential (CXP): 16 V. Metabolic Stability in mouse and human cryopreserved hepatocytes. 10 mM test compounds were provided by Compound Sample Group. Diluted 10 mM test compounds and 30 mM positive control compounds (7-ethoxycoumarin) to 1 mM and 3 mM with DMSO in 96-well plates. Diluted 1 mM test compounds and 3 mM positive control compounds to 100 μM and 300 μM dosing solutions with ACN. Cryopreserved cells were thawed, isolated and suspended in Incubation Medium, then diluted with pre-warmed Incubation Medium to 0.5 × 10^6cells/mL. Added 198 μL of pre-warmed cell suspensions in 96 -well plates. Transferred 125 μL of stop solution (acetonitrile containing 200 ng/mL tolbutamide and 200 ng/mL labetalol as internal standards) in a set of pre- labeled 96-well plates. Spike d 2 μL dosing solution to each well of 96 -well plates in duplicates. For T0 Samples, mix ed to achieve a homogenous suspension for about 1 min, then immediately transferred 25 μL of each sample into well containing 125 μL of ice -cold stop solution followed by mixing. Incubated all plates at 37°C in a 95% humidified incubator at 5% CO 2 to start the reactions page 35: with constant shaking at about 600 rpm. At 15, 30, 60 and 90 min, mixed samples and then transferred 25 μL of each sample at each time point to well containing 125 μL of ice -cold stop solution followed by mixing. Medium Control (MC) sample plates (labeled as T0-MC and T90- MC) were prepared at T0 and T90 by adding the same components to each well except cell suspensions. At each corresponding time point, stopped the reactions by removing the plates from incubator and mixing with 125 μL of ice-cold stop solution. Vortexed the plates immediately on a plate shaker at 500 rpm for 10 minutes. Then, centrifuge d all sample plates at 3220 x g for 20 min at 4°C. After centrifugation, 80 μL/well of supernatant in the sample plates were transferred to another set of pre-labeled 96-well plates which containing 240 μL of ultra pure water according to the plate map. Analytical plates were sealed and stored at 4°C until LC-MS/MS analysis. Thawing Medium: Williams' Medium E containing 5% fetal bovine serum and 30% Perc oll solution and other supplements. Incubation Medium: Williams' Medium E (no phenol red) containing 2 mM L-Glutamine and 25 mM HEPES. Stop Solution: Acetonitrile containing 200 ng/mL tolbutamide and labetalol as internal standards. Dilution Solution: Ultra-pure water. The remaining percents of test articles after incubation were calculated by the follow equations: Equation ( 6): Use equation of first order kinetics [NT] […] The data was […] concatenated with a reversed decoy database for evaluating False Discovery Rate (FDR). […]
# [2] = Aqueous solubility assay; type: physicochemical; settings: DPBS buffer
# Protocol: page 30: ADME Methods Aqueous solubility assay: Solubility assays were conducted using a Biomek FX lab automation workstation (Beckman Coulter, Inc., Fullerton, CA) and μSOL Evolution software (pION Inc., Woburn, MA). In a 96-well microplate (Cat. No: 3363, Corning Incorporated, Salt Lake, UT), 10 μL of a 10 mM test compound stock in DMSO was added to 190 μL 1-propanol (Thermo Scientific, spectroscopy, Cat. No: 434360010, Fair Lawn, NJ) to create a reference stock plate. From this reference stock plate, 5 μL solutions were mixed with 70 μL 1-propanol and 75 μL Dulbecco's Phosphate Buffered Saline (DPBS, 1X, GibcoTM, Cat. No: 14190-144, Thermo Fisher Scientifics, Waltham, MA) to generate the reference plate (high sensitivity UV plate, Cat. No: 110286, pION Inc., Woburn, MA). In a 96-well storage plate (Cat. No: 201276-100, Agilent, Santa Clara, CA), 6 μL of a 10 mM test compound stock was added to 600 μL buffer, mixed, sealed, and incubated at room temperature for 18 hours. […] UV spectra of the reference and sample plates were then read, and calculations based on the area under the curve (AUC) of the UV spectra were performed using μSOL Evolution software. […] The medium in the wells was changed every other day, and the trans epithelial electrical resistance (TEER) value was measured
smiles,measurement,setting,value
O=C1CCC(N2Cc3cc(Nc4noc5ccccc45)ccc3C2=O)C(=O)N1 (centres unmarked) [SJ3149],half-life at 1 µM,[1],> 3.6 h
same,solubility at 18 h,[2],36 µM
